According to patent publication US20180339963A1, “ANTICONVULSANT CARBAMATE DERIVATIVES” (Yissum Research Development Company of the Hebrew …, priority 2017, published 2018):
Read-outs that look alike come from different tables or passages of the source. Marks after values point to notes of the source that are not given here.

Legend:
hCA IV = molecular target: T1, hCA IV (Homo sapiens, UniProt P22748); experiment: Stopped flow CO2 hydrase assay, hCA IV; format: biochemical; conditions: mean from 3 assays
T1 construct: made in house
T1 sequence (P22748 19-284): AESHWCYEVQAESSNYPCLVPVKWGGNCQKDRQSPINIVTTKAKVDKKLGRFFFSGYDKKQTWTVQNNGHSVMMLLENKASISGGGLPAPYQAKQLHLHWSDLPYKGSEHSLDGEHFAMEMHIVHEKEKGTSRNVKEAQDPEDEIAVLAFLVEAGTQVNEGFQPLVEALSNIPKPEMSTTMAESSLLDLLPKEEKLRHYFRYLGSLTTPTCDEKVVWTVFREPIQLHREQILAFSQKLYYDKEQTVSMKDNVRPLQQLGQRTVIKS
Method: (§1) An Applied Photophysics stopped-flow instrument has been used for assaying the CA catalysed CO2 hydration activity. Phenol red (at a concentration of 0.2 mM) has been used as indicator, working at the absorbance maximum of 557 nm, with 20 mM Hepes (pH 7.5) as buffer, and 20 mM Na2SO4 (for maintaining constant the ionic strength), following the initial rates of the CA-catalyzed CO2 hydration reaction for a period of 10-100 s. The CO2 concentrations ranged from 1.7 to 17 mM for the determination of the kinetic parameters and inhibition constants. […] The uncatalyzed rates were determined in the same manner and subtracted from the total observed rates. Stock solutions of inhibitor (0.1 mM) were prepared in distilled-deionized water and dilutions up to 0.01 nM were done thereafter with the assay buffer. […] The inhibition constants were obtained by non-linear least-squares methods using PRISM 3 and the Cheng-Prusoff equation, as reported earlier and represent the mean from at least three different determinations. All CA isofoms were recombinant ones obtained in-house.

in vivo [1] = conditions: male, CF no. 1 albino, mouse, ip
[2] = tested on: pentylenetetrazol-induced seizure (scMet); experiment: Subcutaneous metrazol seizure test (scMet) in rats; conditions: for ED50: Rattus norvegicus, po, read-out: scMet ED50; for scMet ED50: rats, p.o.
in vivo [3] = conditions: Sprague-Dawley, rat
SWV mice = experiment: Teratogenicity in the SWV mouse model; format: in vivo; conditions: for No. of fetuses with NTDs / No. of implants / No. of live fetuses / No. of resorptions / Fetal weight mean ± SD: day 8.5 of gestation; for Fetal weight mean ± SD: in g (unit assumed); for No. of live fetuses, figure in parentheses / No. of resorptions, figure in parentheses: share of implants; for No. of fetuses with NTDs, figure in parentheses: share of live fetuses
Method: The teratogenic properties of the newly designed compounds (1-10) were evaluated in the highly inbred SWV mice strain known for its high susceptibility to VPA-induced neural tube defects (NTDs). Two month old nulligravid females, were mated overnight with males and examined for the presence of vaginal plugs the following morning, and the onset of gestation was considered to be 10 p.m. of the previous night, the midpoint of the dark cycle. At day 8.5 of gestation, each dam received a single i.p. injection of the test compounds in an equimolar dose of 0.9 or 1.8 mmol/kg and the control dams were injected with vehicle (25% water solution of Cremophore EL, Fluka Biochemica Germany). The volume of injection was 10 μL/g of body weight. […] At gestation day […], the dams were euthanized by carbon dioxide asphyxiation followed by cervical dislocation. After the opening the uterus, the location of all viable fetuses and resorption sites were recorded, and the fetuses were examined for the presence of exencephaly or other gross congenital abnormalities. The teratogenicity data (implantations, resorptions and NTDs) were evaluated for significant differences between the control and treated groups by analyzing the contingency table with Fisher's exact test. Statistical analysis was conducted using GraphPad InStat (version 3.06; GraphPad Software, San Diego, Calif., USA), and the results of all tests were considered to be statistically significant when the p-value was less than 0.05

6 Hz psychomotor seizure = 6 Hz psychomotor seizure test in mice; conditions: Mus musculus, ip; for responders at 30 mg/kg / responders at 100 mg/kg / responders at 300 mg/kg: read-out: 6 Hz, number of mice protected/number of mice tested
mice = experiment: Neurotoxicity (minimal motor impairment, rotarod) in mice; conditions: mice i.p.
[4] = tested on: maximal electroshock seizure (MES); experiment: Maximal electroshock seizure (MES) test in mice; conditions: Mus musculus, ip; for responders at 30 mg/kg / responders at 100 mg/kg / responders at 300 mg/kg: read-out: MES, number of mice protected/number of mice tested; for ED50: read-out: MES-ED50, mice, i.p.
hCA VII = molecular target: T2, hCA VII (Homo sapiens, UniProt P43166); experiment: Stopped flow CO2 hydrase assay, hCA VII; format: biochemical; conditions: mean from 3 assays, read-out: K1, hCA VII
T2 construct: made in house
T2 sequence (P43166 whole entry): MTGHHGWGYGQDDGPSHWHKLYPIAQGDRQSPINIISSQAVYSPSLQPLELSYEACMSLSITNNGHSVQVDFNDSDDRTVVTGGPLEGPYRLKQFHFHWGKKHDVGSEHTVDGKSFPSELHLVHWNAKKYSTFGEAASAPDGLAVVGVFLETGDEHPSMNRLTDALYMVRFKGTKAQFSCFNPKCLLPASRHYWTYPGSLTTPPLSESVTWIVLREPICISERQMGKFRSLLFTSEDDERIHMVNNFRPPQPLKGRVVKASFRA
Method: as §1

hCA II = molecular target: T3, hCA II (Homo sapiens, UniProt P00918); experiment: Stopped flow CO2 hydrase assay, hCA II; format: biochemical; conditions: mean from 3 assays, read-out: K1, hCA II
T3 construct: made in house
Method: as §1

hCA I = molecular target: T4, hCA I (Homo sapiens, UniProt P00915); experiment: Stopped flow CO2 hydrase assay, hCA I; format: biochemical; conditions: mean from 3 assays, read-out: K1, hCAI
T4 construct: made in house
T4 sequence (P00915 whole entry): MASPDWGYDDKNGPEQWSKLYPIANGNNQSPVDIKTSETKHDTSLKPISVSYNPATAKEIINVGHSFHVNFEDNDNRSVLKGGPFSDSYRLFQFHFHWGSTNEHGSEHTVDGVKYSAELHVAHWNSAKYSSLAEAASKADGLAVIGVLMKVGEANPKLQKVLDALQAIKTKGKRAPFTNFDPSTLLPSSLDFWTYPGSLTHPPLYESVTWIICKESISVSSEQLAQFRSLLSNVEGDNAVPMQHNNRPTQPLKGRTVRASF
Method: as §1

[5] = tested on: maximal electroshock seizure (MES); experiment: Maximal electroshock seizure (MES) test in rats; conditions: for ED50: Rattus norvegicus; for MES-ED50: rats, p.o.
[6] = tested on: pentylenetetrazol-induced seizure (scMet); experiment: Subcutaneous metrazol seizure test (scMet) in mice; conditions: Mus musculus, ip, read-out: scMet-ED50
corneal kindled mouse = experiment: Corneal kindled mouse (CKM) model; format: in vivo; conditions: ip, mice
[7] = read-out: 6 Hz-ED50, mice, i.p., 32 mA
[8] = po, read-out: MES-ED50, rats, p.o.

## CCC(C)C(C)OC(=O)Nc1ccc(S(N)(=O)=O)cc1 (stereo not shown) [Compound 9, 3-methylpentan-2-yl (4-sulfamoylphenyl)carbamate]
hCA IV
  K1, hCA IV: medium potency inhibitors
hCA IV; read-out: K1, hCA IV
  Ki: 183 nM
other
  melting point: 179 to 180 °C
In vivo [1]
  TD50: > 600 mg/kg
[2]
  ED50: > 250 mg/kg
  scMet ED50: inactive
In vivo [3]; male, po
  TD50: > 500 mg/kg
SWV mice
  induction of neural tube defects relative to anticonvulsant effective dose (in words): induced neural tube defects only at doses markedly exceeding their effective dose
SWV mice; single i.p. 0.9 mmol/kg
  No. of fetuses with NTDs: 3
  No. of implants: 126
  No. of live fetuses: 109
  No. of resorptions: 17
  Fetal weight mean ± SD: 0.90 ± 0.07
  No. of live fetuses, figure in parentheses: 86.5%
  No. of resorptions, figure in parentheses: 13.5%
  No. of fetuses with NTDs, figure in parentheses: (2.8)
SWV mice; single i.p. 1.8 mmol/kg
  No. of fetuses with NTDs: 9
  No. of implants: 107
  No. of live fetuses: 49
  No. of resorptions: 58
  Fetal weight mean ± SD: 0.89 ± 0.08
  No. of live fetuses, figure in parentheses: 45.8%
  No. of resorptions, figure in parentheses: 54.2%
  No. of fetuses with NTDs, figure in parentheses: (18.4)*
6 Hz psychomotor seizure; 0.5 h
  responders at 30 mg/kg: 50%
  responders at 100 mg/kg: 50%
  responders at 300 mg/kg: 100%
6 Hz psychomotor seizure; 2 h
  responders at 30 mg/kg: 0%
  responders at 100 mg/kg: 0%
  responders at 300 mg/kg: 25%
6 Hz psychomotor seizure; [7]
  ED50: 53 mg/kg
mice; 30 mg/kg, 0.5 h
  Tox (motor impairment or sedation), number of animals affected/number of animals tested: 0/8
mice; 30 mg/kg, 2.0 h
  Tox (motor impairment or sedation), number of animals affected/number of animals tested: 0/8
mice; 100 mg/kg, 0.5 h
  Tox (motor impairment or sedation), number of animals affected/number of animals tested: 0/8
mice; 100 mg/kg, 2.0 h
  Tox (motor impairment or sedation), number of animals affected/number of animals tested: 0/8
mice; 300 mg/kg, 0.5 h
  Tox (motor impairment or sedation), number of animals affected/number of animals tested: 0/8
mice; 300 mg/kg, 2.0 h
  Tox (motor impairment or sedation), number of animals affected/number of animals tested: 0/8
[4]; 0.5 h
  responders at 30 mg/kg: 75%
  responders at 100 mg/kg: 75%
  responders at 300 mg/kg: 100%
[4]; 2 h
  responders at 30 mg/kg: 0%
  responders at 100 mg/kg: 100%
  responders at 300 mg/kg: 100%
[4]
  ED50: 31 mg/kg
hCA VII
  Ki: 35.5 nM
hCA II
  Ki: 5.4 nM
hCA I
  Ki: 72.9 nM
[5]; [8]
  ED50: 23 mg/kg
[5]
  MES-ED50: 28 mg/kg
[6]
  ED50: 369 mg/kg

## CCC(C)CCOC(=O)Nc1ccc(S(N)(=O)=O)cc1 (stereo not shown) [Compound 10, 3-methylpentyl(4-sulfamoylphenyl)carbamate]
other
  melting point: 168 to 169 °C
In vivo [1]
  TD50: 698 mg/kg
[2]
  ED50: > 250 mg/kg
  scMet ED50: inactive
In vivo [3]; ip
  TD50: > 250 mg/kg
In vivo [3]; male, po
  TD50: > 500 mg/kg
Corneal kindled mouse
  ED50: 59 mg/kg
SWV mice
  induction of neural tube defects relative to anticonvulsant effective dose (in words): induced neural tube defects only at doses markedly exceeding their effective dose
SWV mice; single i.p. 0.9 mmol/kg
  No. of fetuses with NTDs: 9
  No. of implants: 145
  No. of live fetuses: 116
  No. of resorptions: 29
  Fetal weight mean ± SD: 0.88 ± 0.03
  No. of live fetuses, figure in parentheses: 80%
  No. of resorptions, figure in parentheses: 20%
  No. of fetuses with NTDs, figure in parentheses: (7.8)*
SWV mice; single i.p. 1.8 mmol/kg
  No. of fetuses with NTDs: 17
  No. of implants: 108
  No. of live fetuses: 56
  No. of resorptions: 52
  Fetal weight mean ± SD: 0.87 ± 0.08
  No. of live fetuses, figure in parentheses: 51.9%
  No. of resorptions, figure in parentheses: 48.2%
  No. of fetuses with NTDs, figure in parentheses: (30.4)*
6 Hz psychomotor seizure; 0.5 h
  responders at 30 mg/kg: 25%
  responders at 100 mg/kg: 75%
  responders at 300 mg/kg: 100%
6 Hz psychomotor seizure; 2 h
  responders at 30 mg/kg: 0%
  responders at 100 mg/kg: 50%
  responders at 300 mg/kg: 100%
6 Hz psychomotor seizure; read-out: 6 Hz (44 mA)-ED50, mice, i.p., 44 mA
  ED50: 88 mg/kg
6 Hz psychomotor seizure; [7]
  ED50: 80 mg/kg
mice; 30 mg/kg, 0.5 h
  Tox (motor impairment or sedation), number of animals affected/number of animals tested: 1/8
mice; 30 mg/kg, 2.0 h
  Tox (motor impairment or sedation), number of animals affected/number of animals tested: 0/8
mice; 100 mg/kg, 0.5 h
  Tox (motor impairment or sedation), number of animals affected/number of animals tested: 0/8
mice; 100 mg/kg, 2.0 h
  Tox (motor impairment or sedation), number of animals affected/number of animals tested: 0/8
mice; 300 mg/kg, 0.5 h
  Tox (motor impairment or sedation), number of animals affected/number of animals tested: 1/8
mice; 300 mg/kg, 2.0 h
  Tox (motor impairment or sedation), number of animals affected/number of animals tested: 0/8
[4]; 0.5 h
  responders at 30 mg/kg: 75%
  responders at 100 mg/kg: 100%
  responders at 300 mg/kg: 75%
[4]; 2 h
  responders at 30 mg/kg: 25%
  responders at 100 mg/kg: 100%
  responders at 300 mg/kg: 100%
[4]
  ED50: 14 mg/kg
hCA VII
  Ki: 351 nM
[5]; ip, read-out: MES-ED50, rats, i.p.
  ED50: 13 mg/kg
[5]; [8]
  ED50: 28 mg/kg
[5]
  MES-ED50: 23 mg/kg
[6]
  ED50: 70 mg/kg
